Tests used:
megakaryoblast cells = conditions: co-stimulation with leptin; cited from earlier work
From the text: It was previously shown that ADP-induced Ca^2+ mobilization, presumably via Gq-coupled P2Y receptor, was enhanced by co-stimulation with leptin in megakaryoblast cells. Since leptin could phosphorylate the tyrosine residue of Gqα protein by JAK2 (i.e., in AG490-dependent manner) in these cells, leptin could facilitate CCK receptor signalling similarly in C6 cells. […] Thus, further downstream signalling might also involve the activation of p ...

ARC cells = type: cell-based, rat; conditions: leptin 500 nM; 12 slices; 0.5 µM tetrodotoxin; 34 °C; mean with standard error
[1] = tested on: nucleus tractus solitarius; conditions: fourth ventricular injection of leptin; cited from earlier work
From the text: (§1) Also, the effect of CCK on satiety control is attenuated in Zucker fa/fa rats lacking functional leptin receptors. In addition, other evidence implicated that leptin-mediated satiety-controlling systems may strongly interact with CCK systems[18],[50]–[54]. For example, c-Fos expression in oxytocin neurons in the hypothalamic paraventricular nucleus is elevated by leptin administration, and these neurons have axons tha ...

[2] = tested on: oxytocin neurons in the hypothalamic paraventricular nucleus; conditions: leptin administration; cited from earlier work
From the text: as §1

[3] = tested on: porcine adrenal medullary chromaffin cells; conditions: cited from earlier work
[4] = tested on: meal frequency / meal size; conditions: leptin; cited from earlier work
From the text: Although CCK and leptin have been commonly described as satiety controlling peptides, their differential roles have also been highlighted. […] Among the wide variety of intracellular signalling machineries linked to ObRb, it is still uncertain which pathway(s) is/are linked to what type of satiety controls. pSTAT3-ir is used as a genera ...

[5] = tested on: cultured vagal afferent neurons; conditions: cited from earlier work
[6] = tested on: C6-ObRb cells (mouse leptin receptor ObRb); test: Ca2+ imaging (Fura-2) in C6 cells overexpressing mouse ObRb (C6-ObRb); type: cell-based, rat C6 cells
Method: (§2) Rat C6 glioma cells were cultured in Dulbecco’s Modified Eagle Medium/F12 (DMEM/F12) supplemented with 10% FBS, sodium bicarbonate (1.2 g/L), and 1% penicillin/streptomycin antibiotics at 37 °C in 5% CO2. The full-length mouse leptin receptor (ObRb) in pcDNA3.1 vector was kindly provided by Dr. Christian Bjørbaek (BIDMC, Harvard Medical School, Boston, MA, USA) and transfected using Lipofectamine 2000. Subsequently, the cells were cultured in medium containing 500 μg/mL G418 for cell selection.
(§3) C6 cells plated on 35 mm plastic dishes were gently rinsed with buffered salt solution (BSS) consisting of 130 mM NaCl, 5.4 mM KCl, 2 mM CaCl2, 1 mM MgCl2, 5.5 mM D-glucose, and 10 mM HEPES/NaOH (pH 7.4), and incubated in BSS supplemented with 6 µM Fura-2 AM (Dojindo Laboratories, Kumamoto, Japan) for 30 min in a CO2 incubator. Prior to photometry, the cells were rinsed again with BSS, incubated at 37°C for 15 min, and then continuously perfused with BSS at 34°C at a flow rate of 3 mL/min. Fluorescence images were obtained using an upright microscope (Axioplan2; Carl Zeiss, Thornwood, NY, USA) with a water-immersion objective (Achroplan×20 NA0.5w; Carl Zeiss). The wavelength of the excitation UV light (340 nm or 380 nm pulse; 250 msec) was switched using a filter wheel (Lambda 10-2; Sutter Instruments, Novato, CA, USA). […] The background fluorescence was also subtracted using the software. […]

wild-type C6 cells = test: Ca2+ imaging (Fura-2), leptin and CCK-8s signalling interaction in wild-type C6 cells; type: cell-based, rat; conditions: leptin 100 nM
Method: as §2
C6 cells plated on 35 mm plastic dishes were gently rinsed with buffered salt solution (BSS) consisting of 130 mM NaCl, 5.4 mM KCl, 2 mM CaCl2, 1 mM MgCl2, 5.5 mM D-glucose, and 10 mM HEPES/NaOH (pH 7.4), and incubated in BSS supplemented with 6 µM Fura-2 AM (Dojindo Laboratories, Kumamoto, Japan) for 30 min in a CO2 incubator. Prior to photometry, the cells were rinsed again with BSS, incubated at 37°C for 15 min, and then continuously perfused with BSS at 34°C at a flow rate of 3 mL/min. Fluorescence images were obtained using an upright microscope (Axioplan2; Carl Zeiss, Thornwood, NY, USA) with a water-immersion objective (Achroplan×20 NA0.5w; Carl Zeiss). The wavelength of the excitation UV light (340 nm or 380 nm pulse; 250 msec) was switched using a filter wheel (Lambda 10-2; Sutter Instruments, Novato, CA, USA). The UV light was generated by a full spectrum 300W Xenon bulb (Lambda LS; Sutter Instruments), conducted to the microscope through a liquid light guide. The pair of fluorescent images was processed using a band-pass filter (485–515 nm) and exposed to a multiple format cooled CCD camera (CoolSnap-fx; Photometrics, Tucson, AZ, USA) at 6-sec intervals. The filter wheel and the CCD camera were controlled using digital imaging software (MetaFluor ver. 6.2; Japan Molecular Devices, Tokyo, Japan). The background fluorescence was also subtracted using the software.
During image acquisition, leptin (PeproTech, Rocky Hill, NJ, USA), CCK-4 (Peptide Institute, Inc., Osaka, Japan), CCK-8s (Sigma-Aldrich, St. Louis, MO, USA), AG490 (Calbiochem, San Diego, CA), LY294002 (Calbiochem), LY225910 (R&D Systems, Minneapolis, MN, USA), LGM (LKT Laboratories Inc., St. Paul, MN, USA), and ATP (Sigma-Aldrich) were applied by switching the perfusate. The magnitude of Ca^2+ responses was determined by peak area analysis using Origin 5.0 software (OriginLab, Northampton, MA, USA).

[7] = tested on: cerebellar granule cell cultures; conditions: via MAPK pathways; cited from earlier work
From the text: (§4) A product of the obese gene, leptin, is a peptide hormone secreted from white adipocyte tissue, also known as a satiety-controller[31]–[33]. […] Splice variants (ObRa–ObRe) have been identified for leptin receptors and only the full-length isoform (ObRb) contains the intracellular motifs required for the initiation of intracellular signalling. ObRb is a single-transmembrane receptor that interacts with diverse signalling molecules[ ...

dissociated ARC neurons = conditions: cited from earlier work
From the text: as §4

[8] = tested on: hypothalamic astrocyte cultures; conditions: cited from earlier work
From the text: as §4

[9] = tested on: primary cultures of ventromedial hypothalamus (VMN and ARC neurons); conditions: depending on cell populations; cited from earlier work
From the text: as §4

[10] = tested on: CCK-1 and CCK-2 receptors (C6 cells); test: Ca2+ imaging (Fura-2), CCK-8s response in C6 cells; type: cell-based, rat; conditions: CCK-8s 10 nM; n = 103/five dishes; Fura-2, 34°C, BSS pH 7.4
Method: as §2, §3

[11] = tested on: primary cultures of rat nodose ganglion neurons; conditions: CCK-8s treatment, co-stimulation with leptin; cited from earlier work
From the text: An important observation in C6 models, other than intracellular Ca^2+ signalling, is the reduction in leptin-induced nuclear pSTAT3 accumulation by co-stimulation with CCK-8s. The level of pSTAT3 following co-stimulation with CCK-8s and leptin has been analyzed in primary cultures of rat nodose ganglion neurons[53],[54].

Substance	ADP-induced Ca2+ mobilization (megakaryoblast cells)	cells with monophasic Ca2+ increase, ARC (ARC cells)	CCK-induced satiety response [1]	c-Fos expression in the nucleus tractus solitarius [1]	c-Fos expression in oxytocin neurons [2]	cytosolic Ca2+ after leptin stimulation [3]	meal size and meal frequency [4]	cytosolic Ca2+ after leptin stimulation [5]	magnitude of Ca2+ response by co-stimulation, C6-ObRb versus wild-type ([6]; leptin 100 nM and CCK-8s 10 nM, n = 84/four dishes, Student's t-test)	Ca2+ transients by leptin treatment alone, C6-ObRb ([6]; leptin 100 nM, 5 min or 500 nM, 5 min, n = 190/11 dishes)	Ca2+ transients by leptin treatment alone, wild-type C6 cells (wild-type C6 cells; 5 min or 500 nM, 5 min, n = 185/eight dishes)	amplification in the magnitude of CCK-8s-induced Ca2+ mobilization (wild-type C6 cells; 5 min pre-treatment, CCK-8s 10 nM, n = 115/five dishes)	action on N-methyl-D-aspartate-induced Ca2+ influx [7]	ghrelin-induced Ca2+ elevation (dissociated ARC neurons)	cytosolic Ca2+ after leptin stimulation [8]	intrinsic Ca2+ oscillations [9]	C6 cells displaying Ca2+ transients on re-stimulation [10]	total pSTAT3 [11]
leptin: peptide hormone secreted from white adipocyte tissue, product of the obese gene; PeproTech Cat#450-31	enhanced	25.9% ± 4.5	enhanced the CCK-induced satiety response	failed to increase c-Fos expression	elevated	cytosolic Ca^2+ increase	reduces meal size but does not alter meal frequency	cytosolic Ca^2+ increase	not significantly different from that in wild-type C6 cells	failed to evoke Ca^2+ transients	failed to evoke Ca^2+ transients	~ 5 times	excitatory actions	inhibited	monophasic cytosolic Ca^2+ elevation	increased or decreased intrinsic Ca^2+ oscillations		
CCK-8s [reference compound]																	32%	significant increase in pSTAT3

Source: PMC7371863, “Intracellular interplay between cholecystokinin and leptin signalling for satiety control in rats” (Scientific Reports, 2020)
